This test deals with NACHT, LRR and PYD domains-containing protein 3 (Homo sapiens, UniProt Q96P20). Nature of the test: NALP3 inhibitors in yeast, dose response, luminescent (AID 488799).
Chain of NACHT, LRR and PYD domains-containing protein 3 (Q96P20 whole entry, the tested form may be a part): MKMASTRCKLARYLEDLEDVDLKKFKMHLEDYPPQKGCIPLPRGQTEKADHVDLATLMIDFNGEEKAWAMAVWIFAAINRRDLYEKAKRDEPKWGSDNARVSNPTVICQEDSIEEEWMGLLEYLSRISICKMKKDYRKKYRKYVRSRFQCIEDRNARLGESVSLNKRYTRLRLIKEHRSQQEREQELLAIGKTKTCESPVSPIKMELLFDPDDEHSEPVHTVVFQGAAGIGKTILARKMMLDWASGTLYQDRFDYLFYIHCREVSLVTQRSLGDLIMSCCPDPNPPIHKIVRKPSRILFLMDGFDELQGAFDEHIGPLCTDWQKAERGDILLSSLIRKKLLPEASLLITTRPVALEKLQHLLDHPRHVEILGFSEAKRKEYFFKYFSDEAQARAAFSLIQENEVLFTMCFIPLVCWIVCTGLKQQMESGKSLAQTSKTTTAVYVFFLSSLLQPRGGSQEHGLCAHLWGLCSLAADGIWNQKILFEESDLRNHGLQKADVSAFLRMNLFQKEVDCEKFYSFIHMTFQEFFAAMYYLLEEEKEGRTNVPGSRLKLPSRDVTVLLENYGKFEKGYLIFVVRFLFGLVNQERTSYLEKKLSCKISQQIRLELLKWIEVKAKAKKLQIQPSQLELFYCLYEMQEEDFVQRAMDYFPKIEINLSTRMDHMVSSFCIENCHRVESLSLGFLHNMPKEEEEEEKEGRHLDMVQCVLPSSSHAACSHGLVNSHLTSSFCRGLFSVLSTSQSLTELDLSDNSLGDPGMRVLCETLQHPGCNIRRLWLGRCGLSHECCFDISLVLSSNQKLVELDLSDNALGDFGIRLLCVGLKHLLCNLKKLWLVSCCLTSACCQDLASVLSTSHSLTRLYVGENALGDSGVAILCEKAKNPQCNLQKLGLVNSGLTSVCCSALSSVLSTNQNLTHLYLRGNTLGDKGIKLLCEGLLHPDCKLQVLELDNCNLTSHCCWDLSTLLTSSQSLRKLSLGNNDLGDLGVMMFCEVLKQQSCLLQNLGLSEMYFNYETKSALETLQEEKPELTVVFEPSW
Consider `C=CCc1c(C)nc(C)nc1N=NCc1ccccc1O` [2-[(5-Allyl-2,6-dimethyl-pyrimidin-4-yl)-hydrazonomethyl]-phenol], for which 45.5 µM corresponded to half-maximal inhibition (IC50).

Consider `Cc1csc2nc(=O)c(C(=O)NCCC3=CCCCC3)c(O)n12`, for which inhibition was half-maximal at 4.07 µM (IC50). Regarding `O=C(NCCCc1ccccc1)c1c(O)n2ccsc2nc1=O` [5-oxidanyl-7-oxidanylidene-N-(3-phenylpropyl)-[1,3]thiazolo[3,2-a]pyrimidine-6-carboxamide], half-maximal inhibition (IC50) was put at 9.61 µM. For the molecule `O=C(NCCC1=CCCCC1)c1c(O)n2ccsc2nc1=O` [SMR000811826], the IC50 (commonly the midpoint of a concentration-inhibition curve) turned out to be 3.8 µM. Against the preceding molecule, the IC50 is about 2.5-fold lower. As to `O=C1C=CC(/N=N/c2ccc([N+](=O)[O-])cc2Cl)=CC1C(=O)Nc1cccc(Cl)c1` (stereo unspecified) [(3Z)-3-[(2-chloro-4-nitrophenyl)hydrazinylidene]-N-(3-chlorophenyl)-6-oxocyclohexa-1,4-diene-1-carboxamide], it took 1.34 µM to reach half-maximal inhibition (IC50). For `CCCCCC(=O)N1CCN(CCNC=C2C(=O)CC(c3ccco3)CC2=O)CC1` (stereo unspecified) [SMR000019406], it took 7.3 µM to reach half-maximal inhibition (IC50).

These data come from BindingDB's records for doi:10.7270/Q2WD3Z10 (Burnham Center For Chemical Genomics, 2010).
